Measured values taken from patent US7176204B2, “Substituted carboxylic acid derivatives” (Kyorin Pahrmaceutical Co., Ltd., priority 2000, dated 2007).

What was measured:
[1] = target: T1, human type PPARδ ligand-binding domain fused with DNA-binding domain of yeast transcription factor (Homo sapiens, UniProt Q03181); experiment: Test of transactivation on PPAR (luciferase reporter, CHO cells), PPARδ; format: cell-based; conditions: luciferase activity after 24 hours, corrected with Renilla internal standard
T1 construct: expressed in transfected cells; host or cells: CHO cells
T1 sequence (Q03181 211-439 limits assumed): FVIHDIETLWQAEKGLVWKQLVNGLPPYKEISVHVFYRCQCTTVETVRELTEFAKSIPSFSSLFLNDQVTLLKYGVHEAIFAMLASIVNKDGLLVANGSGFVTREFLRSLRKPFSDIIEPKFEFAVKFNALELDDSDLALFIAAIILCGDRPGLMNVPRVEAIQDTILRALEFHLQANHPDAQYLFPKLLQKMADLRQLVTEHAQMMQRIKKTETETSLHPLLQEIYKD
Text: (§1) <Test of Transactivation on Peroxisome Proliferator-Activated Receptor (PPAR)
(§2) To CHO cells cultured in a Dulbecco-modified Eagle's medium containing 10% delipidated fetal calf serum (FCS/DMEM), receptor plasmid and its reporter plasmid (STRATAGENE Corp.) that manifest fused protein of DNA-binding domain being transcription factor of yeast with each ligand-binding domain of human type PPAR (Biochemistry, 1993, 32, 5598), and luciferase plasmid of Renilla (PROMEGA Corp.) for internal standard were cotransfected with lipofectamine in the serum-free state. Thereafter, testing compound was added to the 10% SFCS/DMEM and both luciferase activities were measured after 24 hours, which were corrected with internal standard.

[2] = target: T2, human type PPARγ ligand-binding domain fused with DNA-binding domain of yeast transcription factor (Homo sapiens, UniProt P37231); experiment: Test of transactivation on PPAR (luciferase reporter, CHO cells), PPARγ; format: cell-based; conditions: luciferase activity after 24 hours, corrected with Renilla internal standard
T2 construct: expressed in transfected cells; host or cells: CHO cells
T2 sequence (P37231 238-503 limits assumed): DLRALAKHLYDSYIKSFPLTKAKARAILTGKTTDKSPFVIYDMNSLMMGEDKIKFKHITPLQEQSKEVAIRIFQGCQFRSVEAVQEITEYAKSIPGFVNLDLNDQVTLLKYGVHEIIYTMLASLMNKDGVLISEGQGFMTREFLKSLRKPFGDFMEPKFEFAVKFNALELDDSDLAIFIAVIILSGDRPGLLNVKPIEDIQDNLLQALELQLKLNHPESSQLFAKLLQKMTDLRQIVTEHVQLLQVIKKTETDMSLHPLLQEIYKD
Text: as §1, §2

[3] = target: T3, human type PPARα ligand-binding domain fused with DNA-binding domain of yeast transcription factor (Homo sapiens, UniProt Q07869); experiment: Test of transactivation on PPAR (luciferase reporter, CHO cells), PPARα; format: cell-based; conditions: luciferase activity after 24 hours, corrected with Renilla internal standard
T3 construct: expressed in transfected cells; host or cells: CHO cells
T3 sequence (Q07869 239-466 limits assumed): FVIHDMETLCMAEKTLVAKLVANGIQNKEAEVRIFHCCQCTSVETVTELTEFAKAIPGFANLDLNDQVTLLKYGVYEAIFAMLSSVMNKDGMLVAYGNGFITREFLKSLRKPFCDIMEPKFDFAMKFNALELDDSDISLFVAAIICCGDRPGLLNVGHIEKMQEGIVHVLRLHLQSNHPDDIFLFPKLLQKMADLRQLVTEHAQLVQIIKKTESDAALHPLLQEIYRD
Text: as §1, §2

EC50 [1]	EC50 [2]	EC50 [3]	melting point	Structure (SMILES)
210 nM	550 nM	60 nM		CCOc1ccc(CC(CC)C(=O)O)cc1CNC(=O)c1ccc(Oc2ccccn2)cc1 (single isomer, unassigned; (+)) [Example 27, (+)-2-[[4-Ethoxy-3-[[[4-(2-pyridyloxy)phenyl]carbonylamino]-methyl]phenyl]methyl]butyric acid]
1100 nM	580 nM	190 nM		CCOc1ccc(CC(CC)C(=O)O)cc1CNC(=O)c1ccc(Oc2ccccn2)cc1 (single isomer, unassigned; (-)) [Example 28, (−)-2-[[4-Ethoxy-3-[[[4-(2-pyridyloxy)phenyl]carbonylamino]methyl]phenyl]methyl]butyric acid]
			175 to 176 °C	COc1ccc(CCC(=O)O)cc1C(=O)NCc1cccnc1 [Example 16, 3-[3-[N-(3-Pyridylmethyl)carbamoyl]-4-methoxyphenyl]propionic acid]
> 100000 nM	9600 nM	140 nM	138 to 139 °C	CCC(Cc1ccc(OC)c(C(=O)NCc2ccc(Oc3ccccn3)cc2)c1)C(=O)O (centres unmarked) [Example 18]
2200 nM	5400 nM	340 nM		CCC(Cc1ccc(OC)c(CNC(=O)c2ccc(Oc3cccnc3)cc2)c1)C(=O)O (centres unmarked) [Example 23]
190 nM	410 nM	44 nM		CCOc1ccc(CC(CC)C(=O)O)cc1CNC(=O)c1ccc(Oc2ccccn2)cc1 (racemic) [Example 26, 2-[[4-Ethoxy-3-[[[4-(2-pyridyloxy)phenyl]carbonylamino]-methyl]phenyl]methyl]butyric acid]
